Laboratory results taken from PMC8229129, “Local Colonic Administration of a Serine Protease Inhibitor Improves Post-Inflammatory Visceral Hypersensitivity in Rats” (Pharmaceutics, 2021).

Tests used:
[1] = system: visceral hypersensitivity in post-colitis rats; test: Visceromotor response (VMR) to colorectal distensions, TNBS-induced post-colitis rat model for visceral hypersensitivity; type: in vivo, Sprague–Dawley rats
Description: A well-characterized 2,4,6-trinitrobenzene sulfonic acid (TNBS)-induced post-colitis rat model for visceral hypersensitivity was used in this study. Details on the procedures are given in subsequent paragraphs. After acclimation, an enema containing TNBS was used to induce a mild colitis, whereas control rats received an enema containing saline. The presence and severity of acute colitis were scored colonoscopically 3 days later. Subsequently, a colonoscopy was performed starting from day 10 and repeated every 4 days until complete mucosal healing was observed. Then, electromyographic (EMG) electrodes were implanted in the abdominal musculature of the rat and exteriorized at the scapular region. Three days later, the serine protease inhibitor UAMC-00050 or its vehicle was given intracolonically. Thirty minutes after the single administration of the drug, visceral sensitivity to colorectal distensions and colonic compliance were evaluated. Finally, animals were sacrificed (exsanguination under pentobarbital anesthesia, 45 mg/kg i.p.) and inflammatory parameters (colonoscopy, macroscopy, microscopy, and myeloperoxidase (MPO) activity) were scored to confirm the post-inflammatory state of the animal and to evaluate effects of the compound on mucosal inflammation. Colonic and fecal samples were taken for the assessment of proteolytic activities using selective fluorogenic substrates. Pharmacokinetic experiments were performed in a separate group of rats.
After an overnight fast with free access to water, rats were anesthetized with a mixture of ketamine (35 mg/kg, i.p.) and xylazine (5 mg/kg, i.p.) and placed in a Trendelenburg position. A flexible catheter (18 G, length 4.5 cm) was used to administer a 250 µL TNBS-enema (4 mg in 50% ethanol) or saline in the distal colon of randomized colitis and control rats, respectively, according to previously published protocols. Afterwards, animals were allowed to recover in their own cages with free access to water and food.
The serine protease inhibitor UAMC-00050 (0.1–1.0–2.5–5.0 mg/kg, dissolved in a volume of 200 µL) or its vehicle (5% DMSO in H2O) was delivered colonically using a flexible catheter (18 G, length 4.5 cm) under short-lasting isoflurane anesthesia (5.0% induction, 1.5% maintenance). To prevent expulsion of the enema, animals were held in a Trendelenburg position for 90 s. Doses for intracolonic administration were based on the doses known to be effective via an i.p. administration and adapted afterwards based on preliminary results.
Contractions of the abdominal musculature in response to isobaric colorectal distensions, a nociceptive reflex known as the visceromotor response (VMR), were used to quantify colonic mechanosensitivity in vivo [24, 28]. To this end, 2 Teflon-coated EMG electrodes (AISI 316 stainless steel, ø 0.125 mm, Advent Research Material Ltd., Oxford, UK) were sutured into the abdominal external oblique muscle, in close proximity to the right inguinal ligament and 5 mm apart. Then, the electrodes were tunneled, subcutaneously towards the base of the neck, exteriorized, and fixated with a plastic cap for future access. Rats were single-housed during their 3-day recovery after the surgical procedure to protect the electrodes and plastic cap from damage.
On the day of the VMR experiment, a lubricated balloon (length 5.0 cm) was introduced into the colorectum of the conscious rat and connected to a barostat, allowing phasic isobaric colonic distensions (Distender Series IIR Barostat, G&J Electronics, Toronto, ON, Canada). EMG electrodes were attached to a data acquisition system and a standardized, pressure-controlled phasic distension protocol was used to expand the balloon (20 s distensions of 10–20–30–40–60 mmHg, 4 min interval). […]

[2] = system: plasmin; design: method as in PMID 29911328; details: in vitro; cited from earlier work
[3] = system: dry eye syndrome; design: method as in PMID 33057006; details: rat model of dry eye syndrome; cited from earlier work
[4] = system: inflammatory parameters; design: method as in PMID 29911328; details: post-inflammatory model, intraperitoneal treatment; cited from earlier work
[5] = system: neutrophil elastase; design: method as in PMID 29911328; details: in vitro; cited from earlier work
[6] = system: uPA; design: method as in PMID 29911328; details: in vitro; cited from earlier work
[7] = system: inflammatory infiltrate and mucosal architecture of distal colon; test: Microscopic score of the distal colon; type: in vivo, Sprague–Dawley rats; details: for Microscopy, Day of VMR: score 0–10, mean ± SEM, n = 8
Description: For microscopic evaluation, a representative section of the distal colon (1 cm^2) was fixed in 4% formaldehyde for 24 h and embedded in paraffin for hematoxylin and eosin staining. Transverse sections (5 µm) were scored for the presence of inflammatory infiltrate and alterations in mucosal architecture, as previously described (total score 0–10, Supplementary Table S3).

[8] = system: tryptase; design: method as in PMID 29911328; details: in vitro; cited from earlier work
[9] = system: MPO activity in colonic tissue; test: Colonic myeloperoxidase (MPO) activity; type: in vivo, Sprague–Dawley rats; details: for MPO Activity, Day of VMR: mean ± SEM, n = 8, significant effect of treatment
Description: Finally, colonic MPO activity was determined in a full-thickness colonic segment (±30 mg) as published previously. MPO is a pro-inflammatory enzyme stored in the azurophilic granules of neutrophilic granulocytes and monocytes. […] One unit (U) of MPO activity is defined as the amount of enzyme required to convert 1 µmol H2O2 to H2O within 1 min at 25 °C and is expressed as U/g tissue.

CC(=O)Nc1ccc(OP(=O)(Oc2ccc(NC(C)=O)cc2)C(Cc2ccc(N=C(N)N)cc2)NC(=O)OCc2ccccc2)cc1.Cl (stereo not drawn) [UAMC-00050]
Effect on visceral sensitivity (VMR) ([1]; control rats, 5.0 mg/kg single intracolonic administration): no changes in visceral sensitivity
Effect on visceral sensitivity (VMR) ([1]; post-colitis rats, 0.1 mg/kg single intracolonic administration, 30 min before): attenuated visceral sensitivity at 30 and 40 mmHg
Effect on visceral sensitivity (VMR) ([1]; post-colitis rats, 1.0 mg/kg single intracolonic administration, 30 min before): decreased visceral sensitivity at 20 mmHg
Effect on visceral sensitivity (VMR) ([1]; post-colitis rats, 2.5 mg/kg single intracolonic administration, 30 min before): completely restored sensitivity to normal values
Effect on visceral sensitivity (VMR) ([1]; post-colitis rats, 5.0 mg/kg single intracolonic administration, 30 min before): VMRs that were even lower than those in control rats
Dose required to obtain complete reversal of visceral hypersensitivity ([1]; post-colitis rats, intracolonic): 2.5 mg/kg
inhibition of plasmin [2]: efficiently inhibits
Effect on inflammation [3]: anti-inflammatory effects
Effects on inflammatory parameters [4]: no effects
inhibition of neutrophil elastase [5]: did not efficiently inhibit
inhibition of uPA [6]: efficiently inhibits
Microscopy, Day of VMR ([7]; control rats, 5.0 mg/kg intracolonic): 0.8 ± 0.4
Microscopy, Day of VMR ([7]; post-colitis rats, 0.1 mg/kg intracolonic): 0.4 ± 0.4
Microscopy, Day of VMR ([7]; post-colitis rats, 1.0 mg/kg intracolonic): 0.8 ± 0.4
Microscopy, Day of VMR ([7]; post-colitis rats, 2.5 mg/kg intracolonic): 0.5 ± 0.4
Microscopy, Day of VMR ([7]; post-colitis rats, 5.0 mg/kg intracolonic): 0.6 ± 0.4
Effect on microscopic evaluation of mucosal damage ([7]; single intracolonic administration, control and post-colitis rats): no effect
inhibition of tryptase [8]: efficiently inhibits
MPO Activity, Day of VMR ([9]; control rats, 5.0 mg/kg intracolonic, vehicle 0.3 ± 0.1): 0.6 ± 0.2 U/g tissue
MPO Activity, Day of VMR ([9]; post-colitis rats, 0.1 mg/kg intracolonic, vehicle 0.3 ± 0.2): 2.0 ± 0.7 U/g tissue
MPO Activity, Day of VMR ([9]; post-colitis rats, 1.0 mg/kg intracolonic, vehicle 0.3 ± 0.2): 2.0 ± 0.5 U/g tissue
MPO Activity, Day of VMR ([9]; post-colitis rats, 2.5 mg/kg intracolonic, vehicle 0.3 ± 0.2): 2.1 ± 0.5 U/g tissue
MPO Activity, Day of VMR ([9]; post-colitis rats, 5.0 mg/kg intracolonic, vehicle 0.3 ± 0.2): 1.7 ± 0.5 U/g tissue
Effect on colonic MPO activity ([9]; single intracolonic administration, both control and post-colitis animals): increased
